Assay results reported in ChEMBL document CHEMBL1144705, “Erythrina alkaloids and a pterocarpan from the bark of Erythrina subumbrans” (J Nat Prod, 2008).
Values after ≈ are worked out from the molar mass of the structure shown. Active and inactive are the calls of the source. The calls are words filed in the database; no cut-off is given here.

Key:
NCI-H187 = test: Cytotoxicity against human NCI-H187 cells; format: functional, cell-based
[1] = (§1) Cytotoxicity against human BC cells; format: functional, cell-based
KB = test: Cytotoxicity against human KB cells; format: functional, cell-based
Plasmodium falciparum = test: Antimalarial activity against multidrug-resistant Plasmodium falciparum K1 by microculture radioisotope assay; format: functional, organism-based
[2] = system: Mycobacterium tuberculosis; test: Antimycobacterial activity against Mycobacterium tuberculosis H37Ra by Alamar blue assay; format: functional
BC = test: as §1; format: functional, cell-based

Q: For CC(C)=CCc1cc([C@@H]2CC(=O)c3c(O)cc(O)c(CC=C(C)C)c3O2)ccc1O [LESPEDEZAFLAVANONE B], which IC50 (NCI-H187) is on record?
A: The IC50 was 7.6 µg/mL (≈ 18.6 µM).

Q: And the IC50 [1]?
A: Its IC50 is 7.6 µg/mL (≈ 18.6 µM).

Q: And the IC50 (KB)?
A: The IC50 was 7.6 µg/mL (≈ 18.6 µM).

Q: And the IC50 (Plasmodium falciparum)?
A: Its IC50 is 3.7 µg/mL (≈ 9.06 µM).

Q: And the MIC [2]?
A: Its MIC is 100 µg/mL (≈ 245 µM).

Q: Which results are given for CO[C@@H]1C[C@@]23C(=C[C@H]1O)CCN2C(=O)C(=O)c1cc2c(cc13)OCO2?
A: Activity (NCI-H187): inactive; Activity (BC): inactive; Activity (KB): inactive; Activity (Plasmodium falciparum): inactive; Activity [2]: inactive

Q: What does the source list for COc1c(CC=C(C)C)c(O)cc2c1[C@@H]1Oc3c(ccc(O)c3CC=C(C)C)[C@@H]1CO2?
A: IC50 (NCI-H187): 7.6 µg/mL (≈ 18 µM); IC50 [1]: 7.6 µg/mL (≈ 18 µM); IC50 (KB): 7.6 µg/mL (≈ 18 µM); MIC [2]: 50 µg/mL (≈ 118 µM)

Q: With COc1ccc2c(c1)OC[C@@]1(O)c3ccc4c(c3O[C@@H]21)C[C@H](O)C(C)(C)O4 [ERYVARIN A] as the compound, how does the MIC [2] read?
A: The MIC was 100 µg/mL (≈ 270 µM).

Q: For CC(C)=CCc1cc([C@@H]2CC(=O)c3c(O)cc(O)cc3O2)cc(CC=C(C)C)c1O [ABYSSINONE V], which IC50 (Plasmodium falciparum) is on record?
A: Its IC50 is 7 µg/mL (≈ 17.1 µM).

Q: What about the MIC [2] of the same compound?
A: The MIC was 100 µg/mL (≈ 245 µM).

Q: Which Activity (NCI-H187) does the source give for COc1cc2c(cc1OC)[C@]13C[C@@H](OC)[C@H](O)C=C1CCN3C(=O)C2=O here?
A: Its Activity is “inactive”.

Q: What about the Activity (BC) of the same compound?
A: Its Activity is “inactive”.

Q: What about the Activity (KB) of the same compound?
A: The Activity was “inactive”.

Q: What about the Activity (Plasmodium falciparum) of the same compound?
A: The Activity was “inactive”.

Q: What about the Activity [2] of the same compound?
A: The Activity was “inactive”.
